Test results from ChEMBL document CHEMBL1127757, “A non-steroidal diene acid inhibitor of human type 2 stereoid 5-reductase” (Bioorg Med Chem Lett, 1994).

Assays:
[1] = molecular target: T1, 3-oxo-5-alpha-steroid 4-dehydrogenase 2 (Homo sapiens) (UniProt P31213); experiment: Percent inhibition towards human Steroid 5-alpha-reductase type 2 at 2.5 uM concentration
T1 sequence (whole entry): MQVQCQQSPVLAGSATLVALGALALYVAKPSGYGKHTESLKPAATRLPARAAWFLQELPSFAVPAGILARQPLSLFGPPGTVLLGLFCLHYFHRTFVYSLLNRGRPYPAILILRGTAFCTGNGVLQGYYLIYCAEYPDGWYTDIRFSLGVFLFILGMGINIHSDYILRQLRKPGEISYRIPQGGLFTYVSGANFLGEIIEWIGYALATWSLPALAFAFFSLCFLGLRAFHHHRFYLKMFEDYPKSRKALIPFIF

[2] = molecular target: T2, 3-oxo-5-alpha-steroid 4-dehydrogenase 1 (Homo sapiens, UniProt P18405); experiment: Apparent inhibition constant towards human Steroid 5-alpha-reductase type I; […]
T2 sequence (P18405 whole entry): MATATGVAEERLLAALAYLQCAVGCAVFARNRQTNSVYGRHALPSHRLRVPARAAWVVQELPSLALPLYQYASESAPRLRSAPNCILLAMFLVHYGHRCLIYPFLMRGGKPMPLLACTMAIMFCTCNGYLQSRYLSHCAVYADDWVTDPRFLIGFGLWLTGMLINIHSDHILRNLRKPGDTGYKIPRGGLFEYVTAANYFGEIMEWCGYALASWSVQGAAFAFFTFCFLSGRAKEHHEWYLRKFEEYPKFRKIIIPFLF

[3] = molecular target: T3, 3-oxo-5-alpha-steroid 4-dehydrogenase 2 (Homo sapiens, UniProt P31213); experiment: Apparent inhibition constant towards human Steroid 5-alpha-reductase type 2; conditions: read-out: Ki app
T3 sequence (P31213 whole entry): T1 sequence (whole entry)

[4] = molecular target: T2, 3-oxo-5-alpha-steroid 4-dehydrogenase 1; experiment: Apparent inhibition constant towards human Steroid 5-alpha-reductase type I; conditions: read-out: Ki app

Row | inhibition [1] [%] | Ki app [2] | Ki [3] [nM] | Ki [4] [nM] | SMILES
1 | 30 | No inhibition | > 2500 | – | COc1ccc2c(c1)CC=C1C=C(C(=O)O)CCC12C (centres undefined)
2 | – | – | 1600 | 1900 | COc1cccc2c1CC=C1C=C(C(=O)O)CCC12C (centres undefined)
3 | – | – | 0.2 | 410 | CC(C)(C)NC(=O)[C@H]1CC[C@H]2[C@@H]3CC=C4C=C(C(=O)O)CC[C@]4(C)[C@H]3CC[C@]12C [EPRISTERIDE]
4 | – | – | > 5000 | 20 | CN1C(=O)CCC2(C)c3ccc(Cl)cc3CCC12 (centres undefined)
5 | – | – | 2 | 100 | CC(C)(C)NC(=O)[C@H]1CC[C@H]2[C@@H]3CC[C@H]4NC(=O)C=C[C@]4(C)[C@H]3CC[C@]12C [FINASTERIDE]

Further lines, the compound ahead of its results:

Row | SMILES | inhibition [1] [%] | Ki app [2] | Ki [3] [nM] | Ki [4] [nM]
6 | CC12CCC(C(=O)O)=CC1=CCc1cc(Cl)ccc12 (centres undefined) | – | – | 260 | 1200
7 | COc1cccc2c1CC=C1C=C(P(O)O)CCC12C (centres undefined) | – | – | 1600 | 1900
8 | CC(C)N(C(=O)[C@H]1CCC2C3CC=C4C=C(P(O)O)CC[C@]4(C)C3CC[C@@]21C)C(C)C (some centres undefined) | – | – | 0.8 | 4900
9 | CC12CCC(P(O)O)=CC1=CCc1cc(Cl)ccc12 (centres undefined) | – | – | 1600 | 1900
